Assay results published in patent US7547712B2 (priority 2006, dated 2009).

Tested on: New Zealand White rabbits
Settings: rabbit, in vivo, sc
Method: 100 female New Zealand White rabbits were tested according to the study design detailed below (Table 2). The vehicle/adjuvant and test article were administered via intramuscular injection. […] The pumps were surgically implanted subcutaneously. The dose volume of the test article and vehicle was 0.5 ml/kg. The dose rate of the pumps was approximately 5 μl/hr.
The test article and vehicle/adjuvant formulations were administered to the study animals once at 30 days prior to gestation, once at 9 days prior to gestation, and once on day 12 of gestation.

CN1CCCC1c1cccnc1 (stereo not drawn) [Nicotine] was tested, and the Mortality (female, New Zealand White) was 3, the “Number of Does: Abortion” value (female) was 5 and the “Number of Does: Found dead/euthanized in extremis” value (female) was 2. The “Number of Does: No. Delivered” value (female) was 11, the “Number of Does: No. Survived Day 28” value (female) was 6 and the “Number of Does: No. whole litters dead” value (female) was 4. The “Number of Does: Not Pregnant” value (female) was 2, the “Number of Kits (Mean) LD 0-7” value (female) was 47.8 and the “Number of Kits (Mean) LD 7-14” value (female) was 100.0. The “Number of Kits (Mean) LD 14-21” value (female) was 100.0, the “Number of Kits (Mean) LD 21-28” value (female) was 100.0 and the “mean lactation index, representing kit survival from lactation day 0-7” value (female) was 47.8%. The “mean number of kits born” value (female) was 6.8 kits/liter, the gestation food consumption was “significantly decreased” and the maternal body weight was “decrease in maternal body weight”.
